Test results reported in ChEMBL document CHEMBL4425194, “Synthesis and biological evaluation of novel imidazol-1-ylacetic acid derivatives as non-brain penetrant bombesin receptor subtype-3 (BRS-3) agonists” (Bioorg Med Chem Lett, 2016).
In brackets after ≈: the same amount, converted by molar mass. Activity calls are given as the source filed them. No cut-off for these calls is given here.

Legend:
[1] = molecular target: T1, Bombesin receptor subtype-3 (Mus musculus, UniProt O54798); experiment: Agonist activity at mouse BRS3 expressed in CHOK1 cells measured after 1 hrs by IP-One HTRF assay; type: cell-based
T1 sequence (O54798 whole entry): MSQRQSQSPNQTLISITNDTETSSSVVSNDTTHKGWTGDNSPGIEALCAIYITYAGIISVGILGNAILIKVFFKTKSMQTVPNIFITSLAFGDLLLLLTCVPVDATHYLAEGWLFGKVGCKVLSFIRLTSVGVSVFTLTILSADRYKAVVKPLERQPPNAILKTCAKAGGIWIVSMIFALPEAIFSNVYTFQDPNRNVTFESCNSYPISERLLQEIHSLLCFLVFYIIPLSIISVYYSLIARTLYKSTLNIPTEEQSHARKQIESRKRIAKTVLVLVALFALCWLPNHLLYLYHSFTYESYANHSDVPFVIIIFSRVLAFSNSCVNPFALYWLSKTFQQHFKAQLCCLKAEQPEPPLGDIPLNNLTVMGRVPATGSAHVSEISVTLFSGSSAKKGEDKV

[2] = molecular target: T2, Bombesin receptor subtype-3 (Homo sapiens, UniProt P32247); experiment: Agonist activity at human BRS3 expressed in CHOK1 cells measured after 1 hrs by IP-One HTRF assay; type: cell-based
T2 sequence (P32247 whole entry): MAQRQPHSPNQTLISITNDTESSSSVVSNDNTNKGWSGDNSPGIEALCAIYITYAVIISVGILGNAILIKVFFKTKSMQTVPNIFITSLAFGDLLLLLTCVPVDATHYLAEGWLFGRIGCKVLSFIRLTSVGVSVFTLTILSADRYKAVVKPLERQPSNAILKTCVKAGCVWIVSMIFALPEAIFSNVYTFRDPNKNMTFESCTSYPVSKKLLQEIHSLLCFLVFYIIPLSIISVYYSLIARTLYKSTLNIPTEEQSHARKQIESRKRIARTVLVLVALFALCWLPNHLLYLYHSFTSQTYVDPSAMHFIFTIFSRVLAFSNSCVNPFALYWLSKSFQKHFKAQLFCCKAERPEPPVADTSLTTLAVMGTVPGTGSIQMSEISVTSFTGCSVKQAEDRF

[3] = Drug uptake in mouse plasma assessed as ratio of active compound to metabolite at 3 mg/kg, iv administered as infusion measured after 30 or 60 mins; type: ADME, organism-based; details: in vivo, 1 h, pooled result: one value given for 2 cell lines, strains, targets or settings
[4] = Drug uptake in mouse brain assessed as active compound level at 10 mg/kg, iv administered as infusion measured after 30 or 60 mins; type: ADME, organism-based; details: 1 h
[5] = Drug uptake in mouse brain assessed as active compound level at 3 mg/kg, iv administered as infusion measured after 30 or 60 mins; type: ADME, organism-based; details: 1 h
[6] = Solubility of the compound in JP2 at pH 6.8; type: physicochemical; details: JP2, pH 6.8
[7] = Fraction unbound in mouse plasma; type: ADME, cell-free
[8] = Solubility of the compound in JP1 at pH 1.2; type: physicochemical; details: JP1, pH 1.2
[9] = Cmax in halothane anesthetized dog showing 100.9% increase in heart rate at 3 mg/kg/ml, iv measured after 30 mins; type: ADME, organism-based, Canis lupus familiaris; set-up: dose 3 mg/kg, route intravenous; details: in vivo
[10] = Plasma concentration in halothane anesthetized dog at 3 mg/kg/ml, iv measured after 30 mins; type: ADME, organism-based, Canis lupus familiaris
[11] = Cardiotoxicity in halothane anesthetized dog assessed as effect on blood pressure at 3 mg/kg/ml, iv measured after 30 mins; type: toxicity, organism-based, Canis lupus familiaris; details: in vivo, 0.5 h
Mus musculus [12] = experiment: Antiobesity activity in po dosed C57BL/6N mouse assessed as anorectic effect measured after 1 hr; type: functional, organism-based
Mus musculus [13] = experiment: Antiobesity activity in C57BL/6N mouse assessed as reduction in food intake at 30 mg/kg, po measured after 1 hr; type: functional; set-up: scale not given: the % may be the effect or the level left
[14] = Octanol-water distribution coefficient, log D of the compound in PBS buffer at pH 7.4; type: physicochemical
[15] = Plasma concentration in halothane anesthetized dog at 3 mg/kg/ml, iv measured after 60 mins; type: ADME, organism-based, Canis lupus familiaris
[16] = Cmax in halothane anesthetized dog not showing increase in heart rate at 3 mg/kg/ml, iv measured after 30 mins; type: ADME, organism-based, Canis lupus familiaris; set-up: dose 3 mg/kg, route intravenous; details: in vivo
Mus musculus [17] = species on record: Mus musculus; experiment: Antiobesity activity in BRS3-deficient C57BL/6N mouse assessed as anorectic effect measured after 1 hr; type: functional, organism-based
[18] = Drug uptake in mouse brain assessed as metabolite level at 3 mg/kg, iv administered as infusion measured after 30 or 60 mins; type: ADME, organism-based; details: 1 h
[19] = Drug uptake in mouse brain assessed as metabolite level at 10 mg/kg, iv administered as infusion measured after 30 or 60 mins; type: ADME, organism-based; details: 1 h

CC(C)(C)Cc1cnc(CCc2ccc(-c3ccccc3C(=O)O)cc2)n1CC(=O)O
EC50 [1]: 1270 nM
EC50 [2]: 897 nM

COC(=O)c1ccccc1-c1ccc(CCCc2ncc(CC(C)(C)C)[nH]2)cc1
EC50 [1]: > 10000 nM
EC50 [2]: > 10000 nM

CCC(C)(C)Cc1cnc(CCc2ccc(-c3ccccn3)cc2)n1CC(=O)O
EC50 [1]: 26 nM
EC50 [2]: 42 nM

COC(=O)c1c(F)cccc1-c1ccc(CCc2ncc(CC(C)(C)C)n2CCC(=O)O)cc1
Ratio [3]: 1.3
Kp [4]: 0.02
EC50 [1]: 3 nM
Kp [5]: 0.02
EC50 [2]: 1 nM

CC(C)(C)Cc1cnc(CCc2ccc(-c3cccc(F)c3C(=O)O)cc2)n1CCC(=O)O
EC50 [1]: 61 nM
EC50 [2]: 11 nM

CC(C)(C)Cc1cnc(CCc2ccc(-c3cccc(F)c3C(=O)O)cc2)n1CCNS(C)(=O)=O
EC50 [1]: 4 nM
EC50 [2]: 2 nM

COC(=O)c1c(F)cccc1-c1ccc(CCc2ncc(CC(C)(C)C)n2CCO)cc1
EC50 [1]: 24 nM
EC50 [2]: 21 nM

COC(=O)c1c(F)cccc1-c1ccc(CCc2ncc(CC(C)(C)C)n2CC(=O)O)cc1
solubility [6]: 370 µg/mL (≈ 818 µM)
fraction unbound [7]: 0.0167
Ratio [3]: 1.31
solubility [8]: 730 µg/mL (≈ 1610 µM)
EC50 [1]: 44 nM
Cmax [9]: 16.8 µM
concentration at 0.5 h [10]: 28.2 µM
Activity [11]: Non-Toxic
Activity (Mus musculus [12]): Dose-dependent effect
EC50 [2]: 39 nM
Activity (Mus musculus [13]): 20%
logD [14]: 2
concentration at 1 h [15]: 1.14 µM
Cmax [16]: 44.3 µM
Activity (Mus musculus [17]): inactive

CC(C)(C)Cc1cnc(CCc2ccc(-c3cccc(F)c3C(=O)O)cc2)n1CC(=O)O
solubility [6]: > 870 µg/mL
fraction unbound [7]: 0.181
solubility [8]: > 870 µg/mL
EC50 [1]: 140 nM
Cmax [9]: 4.2 µM
concentration at 0.5 h [10]: 20.1 µM
EC50 [2]: 69 nM
logD [14]: < -1.8
concentration at 1 h [15]: 1.09 µM
Cmax [16]: 38.1 µM

COC(=O)c1c(F)cccc1-c1ccc(CCc2ncc(CC(C)(C)C)n2CCOc2cccc(O)c2)cc1
Ratio [3]: 2.49
Kp [4]: 0.05
EC50 [1]: 25 nM
Kp [5]: 0.05
EC50 [2]: 13 nM
Kp [18]: 0.31
Kp [19]: 0.31

CCC(C)(C)Cc1cn(CC(=O)O)c(CCc2ccc(-c3ccccn3)cc2)n1
EC50 [1]: 1910 nM
EC50 [2]: 4080 nM

CC(C)(C)Cc1cnc(CCc2ccc(-c3cccc(F)c3C(=O)O)cc2)n1CCO
EC50 [1]: 2 nM
EC50 [2]: 3 nM

CC(C)(C)Cc1cnc(CCc2ccc(-c3cccc(F)c3C(=O)O)cc2)n1Cc1ccc(C(=O)O)cc1
EC50 [1]: 13 nM
EC50 [2]: 12 nM

COC(=O)c1ccccc1-c1ccc(CCc2ncc(CC(C)(C)C)[nH]2)cc1
EC50 [1]: 498 nM
EC50 [2]: 644 nM

COC(=O)c1ccccc1-c1ccc(CCc2ncc(CC(C)(C)C)n2CC(=O)O)cc1
EC50 [1]: 694 nM
EC50 [2]: 968 nM

CC(C)(C)Cc1cnc(CCc2ccc(-c3cccc(F)c3C(=O)O)cc2)n1CCOc1cccc(O)c1
EC50 [1]: 0.8 nM
EC50 [2]: 0.9 nM

COC(=O)C(C)(C)Oc1ccc(CCc2ncc(CC(C)(C)C)[nH]2)cc1
EC50 [1]: 621 nM
EC50 [2]: > 10000 nM

COC(=O)C(C)(C)c1ccc(CCc2ncc(CC(C)(C)C)[nH]2)cc1
EC50 [1]: 9910 nM
EC50 [2]: 2230 nM

COC(=O)c1c(F)cccc1-c1ccc(CCc2ncc(CC(C)(C)C)n2CCNS(C)(=O)=O)cc1
Ratio [3]: 2.3
Kp [4]: 0.02
EC50 [1]: 7 nM
Kp [5]: 0.02
EC50 [2]: 11 nM
Kp [18]: 0.02
Kp [19]: 0.02

COC(=O)c1c(F)cccc1-c1ccc(CCc2ncc(CC(C)(C)C)n2Cc2ccc(C(=O)O)cc2)cc1
EC50 [1]: 5 nM
EC50 [2]: 3 nM
